# Where “and” joins values, the source holds several entries; their conditions need not be identical. Equal values may be shown once.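 Exposure lasted 48 hours, with cells grown in 96-well plates and compounds tested at five concentrations. The concentration for 50% growth inhibition is given as GI50. TGI denotes the concentration required for complete inhibition of growth.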
# Legend:
# Experiment in all cases: inhibition of tumour cell growth, NCI panel, 48 h
# K-562 leukemia = system: K-562 leukemia
# HOP-92 NSCLC = system: HOP-92 NSCLC
# NCI-H23 lung = system: NCI-H23 lung
# HS 578T breast = system: HS 578T breast
# HCT-15 colon = system: HCT-15 colon
# MDA-MB-231 breast = system: MDA-MB-231 breast
# SK-MEL-2 melanoma = system: SK-MEL-2 melanoma
# OVCAR-3 ovarian = system: OVCAR-3 ovarian
# SF-268 CNS = system: SF-268 CNS
# TK-10 renal = system: TK-10 renal
SMILES,GI50 (K-562 leukemia),TGI (K-562 leukemia),GI50 (HOP-92 NSCLC),TGI (HOP-92 NSCLC),GI50 (NCI-H23 lung),TGI (NCI-H23 lung),GI50 (HS 578T breast),TGI (HS 578T breast),GI50 (HCT-15 colon),TGI (HCT-15 colon),GI50 (MDA-MB-231 breast),TGI (MDA-MB-231 breast),GI50 (SK-MEL-2 melanoma),TGI (SK-MEL-2 melanoma),GI50 (OVCAR-3 ovarian),TGI (OVCAR-3 ovarian),GI50 (SF-268 CNS),TGI (SF-268 CNS),GI50 (TK-10 renal),TGI (TK-10 renal)
c1cncc(C2Nc3cccc4cccc(c34)N2)c1,28.8 µM,> 100 µM,22.3 µM,61.2 µM,77.6 µM,> 100 µM,73.4 µM,> 100 µM,26.3 µM,> 100 µM,20.3 µM,65.7 µM,30.9 µM,64.4 µM,17.8 µM,37.1 µM,33.8 µM,> 100 µM,26.8 µM,73.6 µM
Cc1[nH]nc2c1N=C(c1ccccc1F)c1cc(C(N)=O)ccc1N2,1.72 µM,> 25 µM,7.12 µM,> 25 µM,6.85 µM,> 25 µM,0.511 µM,7.25 µM,4.69 µM,> 25 µM,6.8 µM,> 25 µM,2.45 µM,7.14 µM,2.14 µM,> 20.1 µM,2.22 µM,8.46 µM,3.61 µM,16.3 µM
CCc1cc2ncc(CN3CCN(c4ccc(C(=O)NC)nc4)CC3)cc2[nH]c1=O,50 µM,> 100 µM,12.3 µM,> 100 µM,53.5 µM,> 100 µM,64 µM,> 100 µM,65.4 µM,> 100 µM,82 µM,> 100 µM,> 100 µM,> 100 µM,40.5 µM,> 100 µM,> 100 µM,> 100 µM,43.1 µM,> 100 µM
COC(=O)/C=C1/SC(N2N=C(c3cccs3)CC2c2ccc(F)cc2)=NC1=O (stereo not drawn),,,2.4 µM,5.67 µM,2.33 µM,5.82 µM,4.46 µM,> 100 µM,1.95 µM,4.44 µM,2.96 µM,8.16 µM,4.04 µM,15.6 µM,2.19 µM,5.27 µM,2.95 µM,12.6 µM,2.6 µM,8.16 µM
COc1cc(C2C3=C(COC3=O)Nc3c2ccc2c3CCCC2)cc2c1OCO2 (stereo not drawn),0.0351 µM,> 100 µM,0.364 µM,20.8 µM,0.0439 µM,13.7 µM,0.0367 µM,45.5 µM,0.0432 µM,> 100 µM,0.0779 µM,,0.068 µM,27.4 µM,0.0233 µM,0.0518 µM,0.107 µM,19.6 µM,14.9 µM,> 94.3 µM
COc1cc(N2CCN(C(C)C)CC2)ccc1Nc1nc(Nc2cccc(F)c2C(=O)O)c2cc[nH]c2n1,> 25 µM,> 25 µM,1.06 µM,> 25 µM,> 25 µM,> 25 µM,> 25 µM,> 25 µM,> 25 µM,> 25 µM,> 25 µM,> 25 µM,> 25 µM,> 25 µM,> 25 µM,> 25 µM,> 25 µM,> 25 µM,> 25 µM,> 25 µM
Oc1ccc(CCNCc2cc3c(cc2Br)OCO3)cc1,,> 100 µM,,> 100 µM,,> 100 µM,,> 100 µM,,> 100 µM,,> 100 µM,,74.6 µM,,> 100 µM,,> 100 µM,,> 100 µM
N=C(N)c1ccc(NCCOCCNc2ccc(C(=N)N)cc2)cc1,21.3 µM,> 100 µM,15.4 µM,59.8 µM,6.91 µM,> 100 µM,52.8 µM,> 100 µM,30.2 µM,> 100 µM,> 100 µM,> 100 µM,51.6 µM,> 100 µM,69.1 µM,> 100 µM,45.3 µM,> 100 µM,> 100 µM,> 100 µM
Cc1cc2nc3cc(C)c(N)cc3[n+](-c3ccccc3)c2cc1N,3.39 µM,> 100 µM,3.88 µM,27.8 µM,2.77 µM,> 63.5 µM,10.6 µM,> 100 µM,> 100 µM,> 100 µM,20.5 µM,> 100 µM,6.74 µM,47.1 µM,2.98 µM,> 95.7 µM,2.23 µM,> 100 µM,36.6 µM,> 100 µM
C[C@]12CC[C@H]3[C@@H](C[C@@H]4SC(Nc5ccccc5)=N[C@@]45CC(O)CC[C@]35C)[C@@H]1CCC2O (stereo partly drawn),2.45 µM,12.6 µM,2.84 µM,6.77 µM,2.03 µM,5.04 µM,2.16 µM,17.2 µM,1.6 µM,5.15 µM,1.99 µM,4.63 µM,2.51 µM,5.64 µM,1.28 µM,2.62 µM,1.66 µM,3.32 µM,2.91 µM,6.63 µM
NCCOc1ccccc1/C=C1\c2ccccc2-c2ccc([N+](=O)[O-])cc21,,,1.33 µM,2.75 µM,1.7 µM,3.23 µM,1.72 µM,3.79 µM,1.2 µM,2.53 µM,1.58 µM,2.99 µM,1.8 µM,3.34 µM,1.76 µM,3.17 µM,1.58 µM,3.15 µM,,
Cc1cc(C(=O)NC(CCC(=O)O)C(=O)O)sc1CCC1CNc2nc(N)[nH]c(=O)c2C1 (stereo not drawn),< 0.01 µM,> 100 µM,0.179 µM and 0.0802 µM,> 100 µM,,> 100 µM,2.13 µM and 8.89 µM,> 100 µM,0.0502 µM and 0.33 µM,> 100 µM,6.72 µM and 12.8 µM,> 100 µM,,> 100 µM,0.0523 µM and 0.487 µM,> 100 µM,0.044 µM and 0.0721 µM,> 100 µM,0.0355 µM and 0.065 µM,> 100 µM
Cc1ccn2c(CCc3nnc4cc(C)ccn34)nnc2c1,,,,> 100 µM,,> 100 µM,,> 100 µM,,> 100 µM,,> 100 µM,,> 100 µM,,> 100 µM,,> 100 µM,,> 100 µM
CC(=O)C1=C(C)N(C)C2(O)C=CC(=O)C3=C(O)c4ccccc4C(=O)C312 (stereo not drawn),3.14 µM,> 100 µM,2.61 µM,8.48 µM,5.21 µM,46 µM,7.23 µM,40.5 µM,5.41 µM,21.7 µM,4.96 µM,21.6 µM,30.6 µM,> 100 µM,,,9.29 µM,23.6 µM,6.72 µM,20.7 µM

# Reference: PubChem BioAssay (NCI)
